In paper PMC4770715, “LIM kinase inhibitors disrupt mitotic microtubule organization and impair tumor cell proliferation” (Oncotarget, 2015):

How the values were obtained:
Test in all cases: biochemical
Set-up in all cases: KINOMEscan active-site competition binding, percent of control (100 = no competition)
Conditions in all cases: competition binding, percent control
PIK3CA(I800L) = PIK3CA(I800L) (Homo sapiens, UniProt P42336, I800L)
CDC2L1 = target: T1, CDC2L1 (Homo sapiens, UniProt P21127)
T1 construct: gene CDK11B

MLCK = target: T2, MLCK (Homo sapiens, UniProt Q32MK0)
T2 construct: gene MYLK3

GRK7 = GRK7 (Homo sapiens, UniProt Q8WTQ7)
FLT4 = FLT4 (Homo sapiens, UniProt P35916)
YES = target: T3, YES (Homo sapiens, UniProt P07947)
T3 construct: gene YES1

CLK1 = CLK1 (Homo sapiens, UniProt P49759)
MRCKA = target: T4, MRCKA (Homo sapiens, UniProt Q5VT25)
T4 construct: gene CDC42BPA

PIK3CA(C420R) = PIK3CA(C420R) (Homo sapiens, UniProt P42336, C420R)
MLK2 = target: T5, MLK2 (Homo sapiens, UniProt Q02779)
T5 construct: gene MAP3K10
T5 sequence (Q02779 whole entry): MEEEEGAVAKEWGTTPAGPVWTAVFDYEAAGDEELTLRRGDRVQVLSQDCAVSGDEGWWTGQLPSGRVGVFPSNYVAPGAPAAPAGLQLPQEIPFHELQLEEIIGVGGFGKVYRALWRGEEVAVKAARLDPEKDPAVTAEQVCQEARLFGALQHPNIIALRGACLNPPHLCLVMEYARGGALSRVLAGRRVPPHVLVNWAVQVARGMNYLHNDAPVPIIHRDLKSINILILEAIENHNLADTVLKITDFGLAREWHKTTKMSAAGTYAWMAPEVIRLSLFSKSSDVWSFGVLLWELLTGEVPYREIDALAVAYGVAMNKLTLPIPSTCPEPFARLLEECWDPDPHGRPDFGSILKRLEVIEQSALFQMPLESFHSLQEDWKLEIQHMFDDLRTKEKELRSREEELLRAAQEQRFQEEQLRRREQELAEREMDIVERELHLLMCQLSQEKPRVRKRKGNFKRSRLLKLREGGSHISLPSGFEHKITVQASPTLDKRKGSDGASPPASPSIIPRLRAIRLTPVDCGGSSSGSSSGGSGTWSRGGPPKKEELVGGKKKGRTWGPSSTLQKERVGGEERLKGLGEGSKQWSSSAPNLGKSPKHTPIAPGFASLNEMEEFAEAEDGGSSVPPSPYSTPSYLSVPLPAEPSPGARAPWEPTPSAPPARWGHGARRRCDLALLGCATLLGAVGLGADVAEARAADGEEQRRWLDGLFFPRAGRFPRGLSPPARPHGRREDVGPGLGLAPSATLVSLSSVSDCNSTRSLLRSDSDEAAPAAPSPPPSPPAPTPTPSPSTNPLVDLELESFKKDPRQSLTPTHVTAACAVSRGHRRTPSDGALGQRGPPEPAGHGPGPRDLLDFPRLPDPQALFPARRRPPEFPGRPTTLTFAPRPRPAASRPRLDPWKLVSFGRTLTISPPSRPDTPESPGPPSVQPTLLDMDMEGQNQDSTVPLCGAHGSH

EPHB3 = EPHB3 (Homo sapiens, UniProt P54753)
EPHB3, sequence (P54753 whole entry): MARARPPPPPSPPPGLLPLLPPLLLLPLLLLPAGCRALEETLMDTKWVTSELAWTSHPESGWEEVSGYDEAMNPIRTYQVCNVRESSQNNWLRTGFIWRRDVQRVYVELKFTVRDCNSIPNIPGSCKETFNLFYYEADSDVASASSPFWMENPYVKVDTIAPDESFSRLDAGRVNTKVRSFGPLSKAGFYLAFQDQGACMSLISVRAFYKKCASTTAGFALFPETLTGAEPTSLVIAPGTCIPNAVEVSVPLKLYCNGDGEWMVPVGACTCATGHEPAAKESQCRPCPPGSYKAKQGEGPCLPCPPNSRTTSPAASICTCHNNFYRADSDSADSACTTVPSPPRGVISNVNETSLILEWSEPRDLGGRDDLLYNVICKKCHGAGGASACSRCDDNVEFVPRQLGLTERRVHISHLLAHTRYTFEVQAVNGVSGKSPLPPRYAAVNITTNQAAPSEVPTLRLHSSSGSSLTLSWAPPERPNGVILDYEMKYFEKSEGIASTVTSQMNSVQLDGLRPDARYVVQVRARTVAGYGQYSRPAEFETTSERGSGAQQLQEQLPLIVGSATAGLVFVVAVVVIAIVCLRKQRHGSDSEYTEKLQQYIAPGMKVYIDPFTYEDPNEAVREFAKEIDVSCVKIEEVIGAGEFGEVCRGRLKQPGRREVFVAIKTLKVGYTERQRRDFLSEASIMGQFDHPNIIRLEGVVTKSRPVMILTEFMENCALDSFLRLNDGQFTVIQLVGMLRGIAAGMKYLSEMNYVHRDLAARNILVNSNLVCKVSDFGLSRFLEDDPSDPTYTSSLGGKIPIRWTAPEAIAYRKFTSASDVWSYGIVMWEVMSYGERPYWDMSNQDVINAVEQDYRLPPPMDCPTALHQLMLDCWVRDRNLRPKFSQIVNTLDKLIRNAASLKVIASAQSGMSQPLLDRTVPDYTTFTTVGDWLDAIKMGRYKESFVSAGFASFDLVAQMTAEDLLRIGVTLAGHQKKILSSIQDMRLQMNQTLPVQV

GRK1 = GRK1 (Homo sapiens, UniProt Q15835)
GRK1, sequence (Q15835 whole entry): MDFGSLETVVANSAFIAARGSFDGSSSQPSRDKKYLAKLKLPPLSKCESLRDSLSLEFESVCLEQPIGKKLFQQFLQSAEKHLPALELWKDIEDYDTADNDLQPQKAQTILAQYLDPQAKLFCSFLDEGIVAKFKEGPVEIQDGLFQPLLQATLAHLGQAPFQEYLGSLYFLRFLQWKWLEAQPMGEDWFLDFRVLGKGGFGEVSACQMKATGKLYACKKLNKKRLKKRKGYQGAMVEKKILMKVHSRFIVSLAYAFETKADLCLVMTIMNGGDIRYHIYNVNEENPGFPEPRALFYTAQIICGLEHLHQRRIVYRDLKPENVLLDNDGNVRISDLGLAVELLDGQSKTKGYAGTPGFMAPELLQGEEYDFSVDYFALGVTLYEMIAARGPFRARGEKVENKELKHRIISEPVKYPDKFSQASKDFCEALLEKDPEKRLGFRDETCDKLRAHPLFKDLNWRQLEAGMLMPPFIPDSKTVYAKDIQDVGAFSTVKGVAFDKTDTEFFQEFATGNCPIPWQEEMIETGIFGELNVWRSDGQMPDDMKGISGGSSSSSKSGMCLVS

PKN1 = PKN1 (Homo sapiens, UniProt Q16512)
ABL1-phosphorylated = target: T6, ABL1-phosphorylated (Homo sapiens, UniProt P00519)
T6 construct: phosphorylated

PIK3CA(Q546K) = PIK3CA(Q546K) (Homo sapiens, UniProt P42336, Q546K)
PRKD3 = PRKD3 (Homo sapiens, UniProt O94806)
CSNK2A1 = CSNK2A1 (Homo sapiens, UniProt P68400)
CSNK2A1, sequence (P68400 whole entry): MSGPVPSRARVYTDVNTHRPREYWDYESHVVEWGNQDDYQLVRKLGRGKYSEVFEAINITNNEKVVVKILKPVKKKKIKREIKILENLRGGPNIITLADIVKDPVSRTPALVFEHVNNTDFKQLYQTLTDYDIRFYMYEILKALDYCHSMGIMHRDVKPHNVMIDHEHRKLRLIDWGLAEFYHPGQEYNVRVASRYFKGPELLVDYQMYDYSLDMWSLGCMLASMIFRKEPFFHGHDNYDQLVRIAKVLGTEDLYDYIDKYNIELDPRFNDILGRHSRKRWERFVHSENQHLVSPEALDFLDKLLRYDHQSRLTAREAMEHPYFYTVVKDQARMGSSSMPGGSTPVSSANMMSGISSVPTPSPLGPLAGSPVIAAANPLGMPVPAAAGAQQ

SRMS = SRMS (Homo sapiens, UniProt Q9H3Y6)
SRMS, sequence (Q9H3Y6 whole entry): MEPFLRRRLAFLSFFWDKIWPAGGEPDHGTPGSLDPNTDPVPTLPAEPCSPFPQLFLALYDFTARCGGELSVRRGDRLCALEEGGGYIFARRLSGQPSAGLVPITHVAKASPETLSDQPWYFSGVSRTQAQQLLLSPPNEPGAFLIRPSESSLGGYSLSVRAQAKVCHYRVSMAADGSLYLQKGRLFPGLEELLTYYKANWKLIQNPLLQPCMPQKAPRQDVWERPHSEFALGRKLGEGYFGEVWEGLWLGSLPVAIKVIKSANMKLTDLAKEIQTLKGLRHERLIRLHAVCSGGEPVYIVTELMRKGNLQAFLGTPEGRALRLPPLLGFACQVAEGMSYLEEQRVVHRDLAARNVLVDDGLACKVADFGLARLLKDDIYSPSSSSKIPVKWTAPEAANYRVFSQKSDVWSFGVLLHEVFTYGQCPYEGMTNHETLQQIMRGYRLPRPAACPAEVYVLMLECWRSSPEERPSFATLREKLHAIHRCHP

YSK1 = target: T7, YSK1 (Homo sapiens, UniProt O00506)
T7 construct: gene STK25
T7 sequence (O00506 whole entry): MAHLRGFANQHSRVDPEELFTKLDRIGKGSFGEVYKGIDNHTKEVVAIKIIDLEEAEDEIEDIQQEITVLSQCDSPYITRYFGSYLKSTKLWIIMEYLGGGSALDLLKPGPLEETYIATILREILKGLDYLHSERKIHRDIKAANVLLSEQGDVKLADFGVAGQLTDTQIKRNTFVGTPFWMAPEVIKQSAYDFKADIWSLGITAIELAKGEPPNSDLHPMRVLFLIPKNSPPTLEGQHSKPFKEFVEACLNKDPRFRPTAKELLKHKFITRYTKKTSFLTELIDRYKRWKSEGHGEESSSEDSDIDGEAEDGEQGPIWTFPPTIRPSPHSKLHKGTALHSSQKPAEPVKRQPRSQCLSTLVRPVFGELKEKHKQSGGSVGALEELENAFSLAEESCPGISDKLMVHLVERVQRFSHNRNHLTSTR

PIM3 = PIM3 (Homo sapiens, UniProt Q86V86)
[1] = target: T8, ABL1(Q252H)-nonphosphorylated (Homo sapiens, UniProt P00519, Q252H)
T8 construct: nonphosphorylated

PIK3CA(E542K) = PIK3CA(E542K) (Homo sapiens, UniProt P42336, E542K)
TYRO3 = TYRO3 (Homo sapiens, UniProt Q06418)
TYRO3, sequence (Q06418 whole entry): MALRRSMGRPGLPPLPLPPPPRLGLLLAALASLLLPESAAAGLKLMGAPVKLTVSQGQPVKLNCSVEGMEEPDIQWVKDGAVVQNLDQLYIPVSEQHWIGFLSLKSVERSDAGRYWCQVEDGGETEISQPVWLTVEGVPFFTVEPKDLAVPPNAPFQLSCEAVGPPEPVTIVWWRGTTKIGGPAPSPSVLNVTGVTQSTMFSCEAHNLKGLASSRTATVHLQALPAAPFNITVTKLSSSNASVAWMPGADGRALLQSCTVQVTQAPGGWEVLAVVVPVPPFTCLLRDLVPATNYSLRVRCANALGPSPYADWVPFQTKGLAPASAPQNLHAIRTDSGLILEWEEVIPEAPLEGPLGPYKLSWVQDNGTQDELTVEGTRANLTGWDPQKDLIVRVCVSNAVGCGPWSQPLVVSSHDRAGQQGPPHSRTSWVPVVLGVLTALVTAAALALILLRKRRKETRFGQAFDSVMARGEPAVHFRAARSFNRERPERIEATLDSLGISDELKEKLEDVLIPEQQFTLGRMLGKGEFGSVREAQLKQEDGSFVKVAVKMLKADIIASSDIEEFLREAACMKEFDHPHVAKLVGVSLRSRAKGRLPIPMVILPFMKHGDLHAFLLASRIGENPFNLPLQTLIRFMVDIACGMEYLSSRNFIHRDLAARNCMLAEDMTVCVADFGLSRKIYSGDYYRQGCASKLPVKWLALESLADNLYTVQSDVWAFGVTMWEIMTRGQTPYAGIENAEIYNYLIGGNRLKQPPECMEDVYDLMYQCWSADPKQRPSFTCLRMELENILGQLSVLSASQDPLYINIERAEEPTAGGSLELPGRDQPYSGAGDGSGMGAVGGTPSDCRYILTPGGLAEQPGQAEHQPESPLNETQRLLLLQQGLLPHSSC

| SMILES | remaining binding at 10 µM (PIK3CA(I800L)) | remaining binding at 10 µM (CDC2L1) | remaining binding at 10 µM (MLCK) | remaining binding at 10 µM (GRK7) | remaining binding at 10 µM (FLT4) | remaining binding at 10 µM (YES) | remaining binding at 10 µM (CLK1) | remaining binding at 10 µM (MRCKA) | remaining binding at 10 µM (PIK3CA(C420R)) | remaining binding at 10 µM (MLK2) | remaining binding at 10 µM (EPHB3) | remaining binding at 10 µM (GRK1) | remaining binding at 10 µM (PKN1) | remaining binding at 10 µM (ABL1-phosphorylated) | remaining binding at 10 µM (PIK3CA(Q546K)) | remaining binding at 10 µM (PRKD3) | remaining binding at 10 µM (CSNK2A1) | remaining binding at 10 µM (SRMS) | remaining binding at 10 µM (YSK1) | remaining binding at 10 µM (PIM3) | also measured |
| --- | --- | --- | --- | --- | --- | --- | --- | --- | --- | --- | --- | --- | --- | --- | --- | --- | --- | --- | --- | --- | --- |
| COc1ccc(-c2cnccc2-c2cnc(NC(=O)C(C)C)s2)c(C(F)(F)F)c1 [CRT0105446, N-{5-[3-(4-Methoxy-2-trifluoromethyl-phenyl)-pyridin-4-yl]-hiazol-2-yl}-isobutyramide] | 100% | 54% | 90% | 58% | 61% | 99% | 85% | 77% | 100% | 69% | 83% | 70% | 62% | 77% | 100% | 98% | 95% | 93% | 100% | 95% | remaining binding at 10 µM [1]: 83%; remaining binding at 10 µM (PIK3CA(E542K)): 100%; remaining binding at 10 µM (TYRO3): 100% |
| Cc1ccc(-c2cnccc2-c2cnc(Nc3ccc(O)cc3)s2)c(Cl)c1 [CRT0105950, 4-{5-[3-(2-Chloro-4-methyl-phenyl)-pyridin-4-yl]-thiazol-2-ylamino}-phenol] | 100% | 71% | 14% | 16% | 26% | 66% | 0.4% | 84% | 88% | 40% | 96% | 59% | 20% | 70% | 100% | 11% | 60% | 87% | 22% | 72% | remaining binding at 10 µM [1]: 70%; remaining binding at 10 µM (PIK3CA(E542K)): 100%; remaining binding at 10 µM (TYRO3): 51% |
